Measured values reported in ChEMBL document CHEMBL1139816, “Melanocortin subtype 4 receptor agonists: structure-activity relationships about the 4-alkyl piperidine core” (Bioorg Med Chem Lett, 2007).

Assays:
Melanocortin receptor 4 [1] = biological target: T1, Melanocortin receptor 4 (Homo sapiens, UniProt P32245); test: Binding affinity to human MC4R
Melanocortin receptor 4 [2] = biological target: T1, Melanocortin receptor 4; test: […] at human MC4R assessed as stimulation of cAMP production; type: functional; design: concentration or dose not given beside the values
Melanocortin receptor 3 = Melanocortin receptor 3 (Homo sapiens, UniProt P41968); test: […] at human MC3R assessed as stimulation of cAMP production; type: functional; design: concentration or dose not given beside the values
Melanocortin receptor 3, sequence (P41968 whole entry): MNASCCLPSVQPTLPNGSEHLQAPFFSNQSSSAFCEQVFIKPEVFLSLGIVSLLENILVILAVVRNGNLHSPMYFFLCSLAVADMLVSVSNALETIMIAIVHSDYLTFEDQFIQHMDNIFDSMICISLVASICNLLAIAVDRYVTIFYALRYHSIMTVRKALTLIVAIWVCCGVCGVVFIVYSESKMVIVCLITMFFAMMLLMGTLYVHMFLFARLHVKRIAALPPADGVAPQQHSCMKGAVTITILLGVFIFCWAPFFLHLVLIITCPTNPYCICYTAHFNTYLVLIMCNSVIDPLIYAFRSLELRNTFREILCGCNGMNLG

Melanocortin receptor 5 = Melanocortin receptor 5 (Homo sapiens, UniProt P33032); test: […] at human MC5R assessed as stimulation of cAMP production; type: functional; design: concentration or dose not given beside the values
Melanocortin receptor 5, sequence (P33032 whole entry): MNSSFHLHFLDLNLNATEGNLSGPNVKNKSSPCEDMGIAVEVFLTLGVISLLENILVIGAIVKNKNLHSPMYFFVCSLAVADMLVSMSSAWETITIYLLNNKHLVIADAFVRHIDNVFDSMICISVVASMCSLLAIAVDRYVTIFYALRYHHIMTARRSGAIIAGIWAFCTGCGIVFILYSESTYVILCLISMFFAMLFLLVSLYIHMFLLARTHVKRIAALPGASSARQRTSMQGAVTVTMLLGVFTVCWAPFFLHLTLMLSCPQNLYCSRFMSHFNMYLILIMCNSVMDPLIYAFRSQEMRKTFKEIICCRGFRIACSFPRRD

Homo sapiens [3] = species on record: Homo sapiens; test: Ratio of EC50 for human MC5R to EC50 for human MC4R
Homo sapiens [4] = species on record: Homo sapiens; test: Ratio of EC50 for human MC3R to EC50 for human MC4R

T1 sequence (P32245 whole entry): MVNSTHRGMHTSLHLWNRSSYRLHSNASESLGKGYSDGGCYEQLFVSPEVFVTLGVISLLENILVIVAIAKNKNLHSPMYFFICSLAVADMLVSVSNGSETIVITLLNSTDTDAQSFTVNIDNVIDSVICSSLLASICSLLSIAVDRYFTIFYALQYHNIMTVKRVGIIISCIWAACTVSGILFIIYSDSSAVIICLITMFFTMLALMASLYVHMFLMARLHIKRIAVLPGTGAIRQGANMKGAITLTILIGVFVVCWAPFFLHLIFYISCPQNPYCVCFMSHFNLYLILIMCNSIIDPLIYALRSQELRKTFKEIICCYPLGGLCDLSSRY

Compound | IC50 (Melanocortin receptor 4 [1]) | Activity (Melanocortin receptor 4 [2]) | EC50 (Melanocortin receptor 4 [2]) | Activity (Melanocortin receptor 3) | EC50 (Melanocortin receptor 3) | Activity (Melanocortin receptor 5) | EC50 (Melanocortin receptor 5) | Selectivity ratio (Homo sapiens [3]) | Selectivity ratio (Homo sapiens [4])
CN1CCN[C@@H](C(=O)N[C@@H](Cc2ccc(F)cc2)C(=O)N2CCC(C(=O)NC(C)(C)C)(C3CCC(C)(C)CC3)CC2)C1 | 162 nM | 87% | 546 nM | 42% | 241 nM | 19% | 1120 nM |  | 
CN1CCN[C@@H](C(=O)N[C@@H](Cc2ccc(F)cc2)C(=O)N2CCC(C(=O)NC(C)(C)C)(C3C=CCCC3)CC2)C1 (some centres undefined) | 64 nM | 76% | 84.6 nM |  |  |  |  |  | 
CN1CCN[C@@H](C(=O)N[C@@H](Cc2ccc(F)cc2)C(=O)N2CCC(C(=O)NC(C)(C)C)(C3(C)CCCCC3)CC2)C1 | 36.6 nM | 79% | 57.8 nM |  |  | 56% | 1980 nM |  | 
CC1(CC#N)CCN(C(=O)[C@H](Cc2ccc(Cl)cc2)NC(=O)[C@H]2Cc3ccccc3CN2)CC1 | 1490 nM |  |  |  |  |  |  |  | 
CCCCCCC1(Cc2nnnn2C)CCN(C(=O)[C@H](Cc2ccc(Cl)cc2)NC(=O)[C@H]2Cc3ccccc3CN2)CC1 | 4 nM | 84% | 28.7 nM | 34% | 1000 nM | 15% | 684 nM |  | 
CC1CCC(C2(C(=O)NC(C)(C)C)CCN(C(=O)[C@H](Cc3ccc(F)cc3)NC(=O)[C@H]3CN(C)CCN3)CC2)CC1 (some centres undefined) | 6.8 nM | 81% | 10 nM | 37% | 230 nM | 27% | 888 nM |  | 
Cn1nnnc1CC1(c2ccc(Cl)cc2)CCN(C(=O)[C@H](Cc2ccc(Cl)cc2)NC(=O)[C@H]2Cc3ccccc3CN2)CC1 | 113 nM | 100% | 4.9 nM | 92% | 434 nM | 17% | 527 nM |  | 
N#CCC1(C2CCCCC2)CCN(C(=O)[C@H](Cc2ccc(Cl)cc2)NC(=O)[C@H]2Cc3ccccc3CN2)CC1 | 6.8 nM | 51% | 189 nM |  |  | 42% | 640 nM | 3 | 
CN1CCN[C@@H](C(=O)N[C@@H](Cc2ccc(F)cc2)C(=O)N2CCC(C(=O)NC(C)(C)C)(C3CCCCC3)CC2)C1 | 13.6 nM | 98% | 6.5 nM |  |  | 31% | 977 nM |  | 
Cn1nnnc1CC1(C2CCOCC2)CCN(C(=O)[C@H](Cc2ccc(Cl)cc2)NC(=O)[C@H]2Cc3ccccc3CN2)CC1 | 32 nM | 90% | 157 nM | 18% | 2950 nM | 18% | 2950 nM |  | 
CCC1(CC#N)CCN(C(=O)[C@H](Cc2ccc(Cl)cc2)NC(=O)[C@H]2Cc3ccccc3CN2)CC1 | 759 nM |  |  |  |  |  |  |  | 
N#CCC1(C2CCCC2)CCN(C(=O)[C@H](Cc2ccc(Cl)cc2)NC(=O)[C@H]2Cc3ccccc3CN2)CC1 | 16.4 nM | 52% | 196 nM |  |  | 40% | 630 nM |  | 
CC(C)CC1(Cc2nnnn2C)CCN(C(=O)[C@H](Cc2ccc(Cl)cc2)NC(=O)[C@H]2Cc3ccccc3CN2)CC1 | 6 nM | 98% | 12.5 nM | 31% | 680 nM | 46% | 662 nM |  | 

Continued by falling IC50 (Melanocortin receptor 4 [1]), values first:

IC50 (Melanocortin receptor 4 [1]) | Activity (Melanocortin receptor 4 [2]) | EC50 (Melanocortin receptor 4 [2]) | Activity (Melanocortin receptor 3) | EC50 (Melanocortin receptor 3) | Activity (Melanocortin receptor 5) | EC50 (Melanocortin receptor 5) | Selectivity ratio (Homo sapiens [3]) | Selectivity ratio (Homo sapiens [4]) | Compound
840 nM | 54% | 2170 nM |  |  |  |  |  |  | CN1CCN[C@@H](C(=O)N[C@@H](Cc2ccc(F)cc2)C(=O)N2CCC(CC3CC3)(C(=O)NC(C)(C)C)CC2)C1
343 nM | 59% | 1770 nM |  |  |  |  |  |  | CN1CCN[C@@H](C(=O)N[C@@H](Cc2ccc(F)cc2)C(=O)N2CCC(C(=O)NC(C)(C)C)(C3C=CC(=O)CC3)CC2)C1 (some centres undefined)
177 nM | 55% | 563 nM |  |  |  |  |  |  | CN1CCN[C@@H](C(=O)N[C@@H](Cc2ccc(F)cc2)C(=O)N2CCC(CC3CCC3)(C(=O)NC(C)(C)C)CC2)C1
173 nM |  |  |  |  |  |  |  |  | N#CCC1(C2CC2)CCN(C(=O)[C@H](Cc2ccc(Cl)cc2)NC(=O)[C@H]2Cc3ccccc3CN2)CC1
66.2 nM | 55% | 151 nM |  |  |  |  |  |  | CCC(C)(C)C1(C(=O)NC(C)(C)C)CCN(C(=O)[C@H](Cc2ccc(F)cc2)NC(=O)[C@H]2CN(C)CCN2)CC1
63 nM | 32% | 827 nM |  |  | 20% | 1100 nM |  |  | CC(C)C1(CC#N)CCN(C(=O)[C@H](Cc2ccc(Cl)cc2)NC(=O)[C@H]2Cc3ccccc3CN2)CC1
52.3 nM | 70% | 111 nM | 17% | 840 nM | 20% | 1760 nM |  |  | Cn1nnnc1CC1(Cc2ccccc2)CCN(C(=O)[C@H](Cc2ccc(Cl)cc2)NC(=O)[C@H]2Cc3ccccc3CN2)CC1
22.2 nM | 40% | 281 nM |  |  | 21% | 480 nM |  |  | CCCCC1(CC#N)CCN(C(=O)[C@H](Cc2ccc(Cl)cc2)NC(=O)[C@H]2Cc3ccccc3CN2)CC1
3.7 nM | 107% | 3.9 nM | 33% | 263 nM | 39% | 250 nM |  |  | CCC(C)C1(Cc2nnnn2C)CCN(C(=O)[C@H](Cc2ccc(Cl)cc2)NC(=O)[C@H]2Cc3ccccc3CN2)CC1 (some centres undefined)
3.6 nM | 76% | 21 nM |  |  | 27% | 380 nM |  |  | Cn1nnnc1CC1(CC(C)(C)C)CCN(C(=O)[C@H](Cc2ccc(Cl)cc2)NC(=O)[C@H]2Cc3ccccc3CN2)CC1
0.85 nM | 96% | 3.2 nM | 50% | 115 nM | 57% | 222 nM | 69 | 36 | Cn1nnnc1CC1(C2CCCCC2)CCN(C(=O)[C@H](Cc2ccc(Cl)cc2)NC(=O)[C@H]2Cc3ccccc3CN2)CC1
